From patent US4338122A, “Biocidal 2-aryl-1,3-cyclopentanedione compounds and alkali metal and ammonium salts thereof” (Union Carbide Corporation, priority 1980, dated 1982)

Legend:
Corn = assay: Post-emergent herbicidal test, corn; type: in vivo; set-up: key: 1: no perceptible injury; 2: intermediate degrees of injury based upon the number and extent to which leaves were injured; 3: intermediate degrees of injury based upon the number and extent to which leaves were injured; 4: intermediate degrees of injury based upon the number and extent to which leaves were injured; 5: the plant was dead; conditions: 2500 parts per million, after ten days
Method: (§1) Suspensions of the test compounds were prepared by dissolving one gram of compound in 50 milliliters of acetone in which had been dissolved 0.1 gram (10 percent of the weight of compound) of an alkylphenoxyethoxyethanol surfactant, as an emulsifying or dispersing agent. The resulting solution was mixed into 160 milliliters of water to give roughly 200 milliliters of a suspension containing the compound in finely divided form. The thus prepared stock suspension contained 0.5 percent by weight of compound. The test concentrations employed in the tests described herein below were obtained by diluting the stock suspension with water. The test procedures were as follows:
(§2) Experiments were also conducted to determine the phytotoxicity of representative compositions with respect to healthy fresh plants. Solutions of the compounds were prepared as described above to provide a concentration of 2500 parts per million of the test compound. The test plants were sprayed in accordance with the procedure described above for the Mite Foliage Spray Test so as to deliver approximately 100 milliliters of test solutions to the leaves of each plant tested. The sprayed plants and controls were set aside for approximately one hour to allow the solutions to dry and were then placed in the greenhouse. After ten days the plants were visually inspected to determine the extent of foliage injury. A rating of 1 indicates no perceptible injury; 5 indicates the plant was dead and ratings of 2, 3 and 4 indicate intermediate degrees of injury based upon the number and extent to which leaves were injured.
(§3) Tests were conducted in accordance with the procedures given at pages 32 to 37 supra. The results are expressed in the same manner as used in Table I, except with respect to miticidal activity. For mite adult and mite egg comparison purposes, results are given in parts per million (ppm) required for a 50 percent kill of mites or eggs, respectively.

Cotton = assay: Post-emergent herbicidal test, cotton; type: in vivo; set-up: key: 1: no perceptible injury; 2: intermediate degrees of injury based upon the number and extent to which leaves were injured; 3: intermediate degrees of injury based upon the number and extent to which leaves were injured; 4: intermediate degrees of injury based upon the number and extent to which leaves were injured; 5: the plant was dead; conditions: 2500 parts per million, after ten days
Method: as §1, §2, §3

Crabgrass = assay: Preliminary herbicide seed germination test (pre-emergent), crabgrass; type: in vivo, Digitaria sanguinalis; set-up: key: 5: no seedling emerged; 4: few seedlings emerged and/or very severe stunting; 3: moderate reduction in stand and/or moderate stunting; 2: very slight reduction in stand and/or slight stunting; 1: no injury; seedlings appear no different with respect to stand or growth than untreated controls; conditions: ten to twelve days after application
Method: as §1
(§4) The following seeds were used in this test:
Crabgrass--Digitaria sanguinalis
(§5) Two soil-seed mixtures were prepared as follows:
(§6) Each of the above mixtures was rolled separately in 5 gallon containers for approximately one-half hour on ball mill to insure uniform mixing of seeds and soil. For each compound four 3-inch pots were filled with soil to within 11/2 inches of top of pots. To two of these pots were added 70 cc. of Mixture I. To the remaining 2 pots were added 70 cc. of Mixture II. The seed-soil mixture was tamped firmly, and the pots were removed to the green-house and watered lightly. About 2 hours after planting, 25 milliliters of the test formulation were added to one pot containing Mixture I and one pot containing Mixture II. An equal volume of a water solution containing acetone and an emulsifier in the same concentration as the herbicidal mixture but without the candidate herbicide was also added to each of the soil-seed mixtures. These pots are used as check or control units. The test compounds were formulated by diluting the stock suspension with water to obtain the desired concentration of the compound in parts per million of the final formulation. Each compound was tested at the same concentration. […] Ratings were made according to the following designations:
as §3

Tomato = assay: Post-emergent herbicidal test, tomato; type: in vivo; set-up: key: 1: no perceptible injury; 2: intermediate degrees of injury based upon the number and extent to which leaves were injured; 3: intermediate degrees of injury based upon the number and extent to which leaves were injured; 4: intermediate degrees of injury based upon the number and extent to which leaves were injured; 5: the plant was dead; conditions: 2500 parts per million, after ten days
Method: as §1, §2, §3

Mustard = assay: Preliminary herbicide seed germination test (pre-emergent), mustard; type: in vivo, Brassica pincea var. foliosa (Florida broadleaf); set-up: key: 5: no seedling emerged; 4: few seedlings emerged and/or very severe stunting; 3: moderate reduction in stand and/or moderate stunting; 2: very slight reduction in stand and/or slight stunting; 1: no injury; seedlings appear no different with respect to stand or growth than untreated controls; conditions: ten to twelve days after application
Method: as §1, §4
Mustard--Brassica pincea var. foliosa (Florida broadleaf)
as §5
as §6, with “designations: […]” for “designations:”

Bean = assay: Post-emergent herbicidal test, bean; type: in vivo; set-up: key: 1: no perceptible injury; 2: intermediate degrees of injury based upon the number and extent to which leaves were injured; 3: intermediate degrees of injury based upon the number and extent to which leaves were injured; 4: intermediate degrees of injury based upon the number and extent to which leaves were injured; 5: the plant was dead; conditions: 2500 parts per million, after ten days
Method: as §1, §2, §3

Cc1ccc(C2C(=O)C3CCCCC3C2=O)c(C)c1 (stereo not drawn) [CH3 CH3 H (CH2)4, 2-(2',4'-dimethylphenyl)-4,5,6,7,8,9-hexahydro-1,3-indandione]
Post-Emergent Herbicidal, Corn (injury rating) (Corn; Table I): 2
Post-Emergent Herbicidal, Corn (injury rating) (Corn; Table II): 2
Post-Emergent Herbicidal, Cotton (injury rating) (Cotton; Table I): 2
Post-Emergent Herbicidal, Cotton (injury rating) (Cotton; Table II): 2
Pre-emergent Herbicidal, Crabgrass (injury rating) (Crabgrass; Table I): 5
Pre-emergent Herbicidal, Crabgrass (injury rating) (Crabgrass; Table II): 5
Post-Emergent Herbicidal, Tomato (injury rating) (Tomato; Table I): 2
Post-Emergent Herbicidal, Tomato (injury rating) (Tomato; Table II): 2
Pre-emergent Herbicidal, Mustard (injury rating) (Mustard; Table I): 5
Pre-emergent Herbicidal, Mustard (injury rating) (Mustard; Table II): 5
Post-Emergent Herbicidal, Bean (injury rating) (Bean; Table I): 1
Post-Emergent Herbicidal, Bean (injury rating) (Bean; Table II): 1

Cc1ccc(C2C(=O)CCC2=O)c(C)c1 [CH3 CH3 H H H, 2-(2',4'-dimethylphenyl)-1,3-cyclopentanedione]
Post-Emergent Herbicidal, Corn (injury rating) (Corn; Table I): 2
Post-Emergent Herbicidal, Corn (injury rating) (Corn; Table II): 2
Post-Emergent Herbicidal, Cotton (injury rating) (Cotton; Table I): 1
Post-Emergent Herbicidal, Cotton (injury rating) (Cotton; Table II): 1
Pre-emergent Herbicidal, Crabgrass (injury rating) (Crabgrass; Table I): 5
Pre-emergent Herbicidal, Crabgrass (injury rating) (Crabgrass; Table II): 5
Post-Emergent Herbicidal, Tomato (injury rating) (Tomato; Table I): 1
Post-Emergent Herbicidal, Tomato (injury rating) (Tomato; Table II): 1
Pre-emergent Herbicidal, Mustard (injury rating) (Mustard; Table I): 3
Pre-emergent Herbicidal, Mustard (injury rating) (Mustard; Table II): 3
Post-Emergent Herbicidal, Bean (injury rating) (Bean; Table I): 1
Post-Emergent Herbicidal, Bean (injury rating) (Bean; Table II): 1

Cc1ccc(C)c(C2C(=O)C3CCCCC3C2=O)c1 (stereo not drawn) [CH3 H CH3 (CH2)4, 2-(2',5'-dimethylphenyl)-4,5,6,7,8,9-hexahydro-1,3-indandione]
Post-Emergent Herbicidal, Corn (injury rating) (Corn; Table I): 1
Post-Emergent Herbicidal, Corn (injury rating) (Corn; Table II): 1
Post-Emergent Herbicidal, Cotton (injury rating) (Cotton; Table I): 1
Post-Emergent Herbicidal, Cotton (injury rating) (Cotton; Table II): 1
Pre-emergent Herbicidal, Crabgrass (injury rating) (Crabgrass; Table I): 1
Pre-emergent Herbicidal, Crabgrass (injury rating) (Crabgrass; Table II): 1
Post-Emergent Herbicidal, Tomato (injury rating) (Tomato; Table I): 1
Post-Emergent Herbicidal, Tomato (injury rating) (Tomato; Table II): 1
Pre-emergent Herbicidal, Mustard (injury rating) (Mustard; Table I): 1
Pre-emergent Herbicidal, Mustard (injury rating) (Mustard; Table II): 1
Post-Emergent Herbicidal, Bean (injury rating) (Bean; Table I): 1
Post-Emergent Herbicidal, Bean (injury rating) (Bean; Table II): 1

Cc1ccc(C)c(C2C(=O)CC(C)C2=O)c1 (stereo not drawn) [CH3 H CH3 CH3 H, 2-(2',5'-Dimethylphenyl)-4-methyl-1,3-cyclopentanedione]
Post-Emergent Herbicidal, Corn (injury rating) (Corn; Table I): 3
Post-Emergent Herbicidal, Cotton (injury rating) (Cotton; Table I): 2
Pre-emergent Herbicidal, Crabgrass (injury rating) (Crabgrass; Table I): 2
Post-Emergent Herbicidal, Tomato (injury rating) (Tomato; Table I): 2
Pre-emergent Herbicidal, Mustard (injury rating) (Mustard; Table I): 2
Post-Emergent Herbicidal, Bean (injury rating) (Bean; Table I): 2

Cc1ccc(C)c(C2C(=O)CCC2=O)c1 [CH3 H CH3 H H]
Post-Emergent Herbicidal, Corn (injury rating) (Corn; Table I): 2
Post-Emergent Herbicidal, Cotton (injury rating) (Cotton; Table I): 2
Pre-emergent Herbicidal, Crabgrass (injury rating) (Crabgrass; Table I): 2
Post-Emergent Herbicidal, Tomato (injury rating) (Tomato; Table I): 1
Pre-emergent Herbicidal, Mustard (injury rating) (Mustard; Table I): 2
Post-Emergent Herbicidal, Bean (injury rating) (Bean; Table I): 2

Cc1ccccc1C1C(=O)C2CCCCC2C1=O (stereo not drawn) [CH3 H H (CH2)4, 2-(2'-Methylphenyl)-4,5,6,7,8,9-hexahydro-1,3 indandione]
Post-Emergent Herbicidal, Corn (injury rating) (Corn; Table I): 2
Post-Emergent Herbicidal, Corn (injury rating) (Corn; Table II): 2
Post-Emergent Herbicidal, Cotton (injury rating) (Cotton; Table I): 3
Post-Emergent Herbicidal, Cotton (injury rating) (Cotton; Table II): 3
Pre-emergent Herbicidal, Crabgrass (injury rating) (Crabgrass; Table I): 3
Pre-emergent Herbicidal, Crabgrass (injury rating) (Crabgrass; Table II): 3
Post-Emergent Herbicidal, Tomato (injury rating) (Tomato; Table I): 1
Post-Emergent Herbicidal, Tomato (injury rating) (Tomato; Table II): 1
Pre-emergent Herbicidal, Mustard (injury rating) (Mustard; Table I): 2
Pre-emergent Herbicidal, Mustard (injury rating) (Mustard; Table II): 2
Post-Emergent Herbicidal, Bean (injury rating) (Bean; Table I): 2
Post-Emergent Herbicidal, Bean (injury rating) (Bean; Table II): 2

Cc1ccccc1C1C(=O)CCC1=O [CH3 H H H H, 2-(2'-methylphenyl)-1,3-cyclopentanedione]
Post-Emergent Herbicidal, Corn (injury rating) (Corn; Table I): 3
Post-Emergent Herbicidal, Corn (injury rating) (Corn; Table II): 3
Post-Emergent Herbicidal, Cotton (injury rating) (Cotton; Table I): 3
Post-Emergent Herbicidal, Cotton (injury rating) (Cotton; Table II): 3
Pre-emergent Herbicidal, Crabgrass (injury rating) (Crabgrass; Table I): 2
Pre-emergent Herbicidal, Crabgrass (injury rating) (Crabgrass; Table II): 2
Post-Emergent Herbicidal, Tomato (injury rating) (Tomato; Table I): 2
Post-Emergent Herbicidal, Tomato (injury rating) (Tomato; Table II): 2
Pre-emergent Herbicidal, Mustard (injury rating) (Mustard; Table I): 1
Pre-emergent Herbicidal, Mustard (injury rating) (Mustard; Table II): 1
Post-Emergent Herbicidal, Bean (injury rating) (Bean; Table I): 3
Post-Emergent Herbicidal, Bean (injury rating) (Bean; Table II): 3

O=C1CCC(=O)C1c1ccc(Cl)cc1Cl [Cl Cl H H H, 2-(2',4'-Dichlorophenyl)-1,3-cyclopentanedione]
Post-Emergent Herbicidal, Corn (injury rating) (Corn; Table I): 1
Post-Emergent Herbicidal, Cotton (injury rating) (Cotton; Table I): 2
Pre-emergent Herbicidal, Crabgrass (injury rating) (Crabgrass; Table I): 1
Post-Emergent Herbicidal, Tomato (injury rating) (Tomato; Table I): 1
Pre-emergent Herbicidal, Mustard (injury rating) (Mustard; Table I): 1
Post-Emergent Herbicidal, Bean (injury rating) (Bean; Table I): 1

O=C1CCC(=O)C1c1ccccc1Cl [Cl H H H H]
Post-Emergent Herbicidal, Corn (injury rating) (Corn; Table I): 2
Post-Emergent Herbicidal, Cotton (injury rating) (Cotton; Table I): 2
Pre-emergent Herbicidal, Crabgrass (injury rating) (Crabgrass; Table I): 3
Post-Emergent Herbicidal, Tomato (injury rating) (Tomato; Table I): 1
Pre-emergent Herbicidal, Mustard (injury rating) (Mustard; Table I): 3
Post-Emergent Herbicidal, Bean (injury rating) (Bean; Table I): 3

Cc1ccccc1C1C(=O)c2ccccc2C1=O [Reference I Page 3, Compound 1, reference compound]
Post-Emergent Herbicidal, Corn (injury rating) (Corn; Table II): 1
Post-Emergent Herbicidal, Cotton (injury rating) (Cotton; Table II): 1
Pre-emergent Herbicidal, Crabgrass (injury rating) (Crabgrass; Table II): 2
Post-Emergent Herbicidal, Tomato (injury rating) (Tomato; Table II): 2
Pre-emergent Herbicidal, Mustard (injury rating) (Mustard; Table II): 1
Post-Emergent Herbicidal, Bean (injury rating) (Bean; Table II): 2

Cc1ccc(C)c(C2C(=O)c3ccccc3C2=O)c1 [Reference II Page 146, Compound 6, reference compound]
Post-Emergent Herbicidal, Corn (injury rating) (Corn; Table II): 1
Post-Emergent Herbicidal, Cotton (injury rating) (Cotton; Table II): 1
Pre-emergent Herbicidal, Crabgrass (injury rating) (Crabgrass; Table II): 1
Post-Emergent Herbicidal, Tomato (injury rating) (Tomato; Table II): 1
Pre-emergent Herbicidal, Mustard (injury rating) (Mustard; Table II): 1
Post-Emergent Herbicidal, Bean (injury rating) (Bean; Table II): 1

Cc1ccc(C2C(=O)c3ccccc3C2=O)c(C)c1 [Reference II Page 146, Compound 9, reference compound]
Post-Emergent Herbicidal, Corn (injury rating) (Corn; Table II): 1
Post-Emergent Herbicidal, Cotton (injury rating) (Cotton; Table II): 1
Pre-emergent Herbicidal, Crabgrass (injury rating) (Crabgrass; Table II): 3
Post-Emergent Herbicidal, Tomato (injury rating) (Tomato; Table II): 1
Pre-emergent Herbicidal, Mustard (injury rating) (Mustard; Table II): 2
Post-Emergent Herbicidal, Bean (injury rating) (Bean; Table II): 1
